Assay results: US5350748A, “3-thio or amino substituted-benzo[b]thiophene-2-carboxamides and 3-oxygen, thio, or amino substituted-benzofuran-2-carboxamides as inhibitors of cell adhesion” (Warner-Lambert Company, priority 1993, dated 1994)

Tested on: human neutrophil adhesion to TNF-α-stimulated human umbilical vein endothelial cells (HUVEC)
Experiment: Modified method: inhibition of human neutrophil adhesion to TNF-α-stimulated human umbilical vein endothelial cells (calcein-labeled neutrophils)
Format: cell-based
Settings: 33 μM, neutrophils labeled with calcein, read-out: Adhesion ECA, % inhibition
Description: The 3-thiol, thioether, amino, alkylamino, or arylamino-benzo[b]thiophene-2-carboxamides and 3-alkoxy, aryloxy, thiol, thioether, amino, alkylamino, or arylamino-benzofuran-2-carboxamides have been shown in an in vitro assay to prevent the adhesion of neutrophils to human umbilical vein endothelial cells (HUVECS) stimulated with TNF-α. In this assay, HUVECS are stimulated with TNF-α for 4 hours, after which the cells are assayed for their ability to adhere to human neutrophils labeled with either ^51 Cr or calcein, a fluorescent dye. The details of this assay are described in the DETAILED DESCRIPTION.
Neutrophils were isolated from anticoagulant-treated venous blood obtained from healthy human volunteers according to the method of Ferrante and Thong [J. Immunol. Methods 24, 389-93 (1978)]. The cell preparations consisted of greater than 98% neutrophils.
Modified Method for Determining the Inhibition of Human Neutrophil Adhesion to TNF-α, IL-1α, and LPS Stimulated Human Umbilical Vein Endothelial Cells
The previous assay using ^51 Cr labeled human neutrophils has been modified. The neutrophils are now labeled with the fluorescent dye calcein. The current method allows for quantification of neutrophil adherence by fluorescence spectroscopy.
Second passage HUVEC (Clonetics Corporation, San Diego, Calif., CC-2617) were seeded into Coring (Corning glass works, Corning, N.Y.) 96-well cell culture plates at approximately 5×10^3 cells/well and grown to confluency in supplemented endothelial basal medium (EBM, MCDB-131, Clonetics, 10 ng/mL EGF, 1 μg/mL hydrocortisone, 0.4% bovine brain extract, 5% Fetal Bovine Serum). One day prior to running the assay, typically 3 days postseeding, the cultures were refed with 0.2 mL/well supplemented EBM (S-EBM).
Test compounds were prepared as 10 mL stock solutions at a concentration of 1.0 mM. The compounds were initially solubilized in 0.1 mL DMSO followed by the addition of 9.9 mL S-EBM. The drug preparations were then diluted in one step to a concentration of 66.6 μM or 200 μM. Solubilizations and dilutions were performed in polystyrene containers.
Recombinant human tumor necrosis factor-α (TNF, Genzyme, Boston, Mass., code TNF-H) was prepared at 400 U/mL in S-EBM. Stock TNF was prepared to 20,000 U/mL in Delbecco's phosphate-buffered saline (PBS, Gibco, Grand Island N.Y.) plus 0.1% BSA and stored at -70° C. HUVEC were washed one time with 0.2 mL warm unsupplemented EBM and then stimulated for 4hours at 37° C. with 200 U/mL TNF in the presence of 33.3 μM or 100 μM test compound. This was accomplished by adding 0.1 mL of 400 U/mL TNF and 0.1 mL 66.6 μM or 0.1 mL of 200 μM test compound. These additions were done slowly as to not disrupt the HUVEC monolayer. Each compound was tested in six wells. Unstimulated (vehicle control) and TNF-stimulated without test compound treatments were also run in each plate.
One hour prior to adding the neutrophils (isolated as previously described) to the HUVEC, neutrophils (5×10^6 /mL) were labeled for 30 minutes at 37° C. with 5 μM calcine-AM (Molecular Probes, Eugene, Oreg.) in Hanks' balanced salt solution plus 0.45% BSA. Stock calcein was prepared to 5mM in anhydrous DMSO and stored desiccated at -20° C. At the end of the incubation the cells were washed two times in cold HBSS and resuspended to a final concentration of 1×10^6 cells/mL in unsupplemented EBM.
At the end of the 4-hour stimulation and immediately prior to the addition of the neutrophils to the HUVEC monolayer, the plates were washed with 0.2 ml warm unsupplemented EBM to remove TNF and drug. Neutrophils (1×10^5 cells) were slowly added to each of the treated wells and incubated for 30 minutes at 37° C. At the end of the incubation the plates were washed two times with 0.2 mL warm unsupplemented EBM followed by a final addition of 0.1 mL for plate scanning.
The fluorescence was determined using a Millipore Cytofluor 2300 system (excitation=480, emission=530, sensitivity=4). […]

COc1ccc2sc(C(N)=O)c(S)c2c1 [Example 9, 3-Mercapto-5-methoxybenzo[b]thiophene-2-carboxamide] was tested. Which inhibition at 33 µM did it give?
The inhibition at 33 µM was 15%.

For CC(C)Oc1c(C(N)=O)oc2ccc(O)cc12 [Example 38, 5-Hydroxy-3-(1-methylethoxy)-2-benzofurancarboxamide], which inhibition at 33 µM is on record?
Its inhibition at 33 µM is 67%.

Which inhibition at 33 µM does the source give for COC(=O)c1ccc(CSc2c(C(N)=O)sc3ccc(OC)cc23)cc1 [Example 16, Methyl 4-[[[2-(aminocarbonyl)-5-methoxybenzo[b]thien-3-yl]thio]methyl]benzoate] here?
The inhibition at 33 µM was 10%.

How did the inhibition at 33 µM turn out when COc1cccc2sc(C(N)=O)c(N)c12 [Example 19, 3-Amino-4-methoxybenzo[b]thiophene-2-carboxamide] was run?
Its inhibition at 33 µM is 30%.

COC(=O)CCSc1c(C(N)=O)sc2ccc(OC)cc12 [Example 10, Methyl 3-[[2-(aminocarbonyl)-5-methoxybenzo[b]thien-3-yl]thio]propanoate] was tested. Which inhibition at 33 µM did it give?
Its inhibition at 33 µM is 55%.

With COc1ccc2sc(C(N)=O)c(SCCCCC(=O)O)c2c1 [Example 14] as the molecule, how does the inhibition at 33 µM read?
Its inhibition at 33 µM is 37%.

NC(=O)c1oc2ccccc2c1N [Example 25, 3-Amino-2-benzofurancarboxamide] was tested. Which inhibition at 33 µM did it give?
The inhibition at 33 µM was 21%.

Which inhibition at 33 µM does the source give for COc1ccc2sc(C(N)=O)c(S(=O)(=O)C(C)C)c2c1 [Example 3, 5-Methoxy-3-[(1-methylethyl)sulfonyl]benzo[b]thiophene-2-carboxamide] here?
Its inhibition at 33 µM is 32%.

How did the inhibition at 33 µM turn out when COc1ccc2sc(C(N)=O)c(SCC(=O)O)c2c1 [Example 15, [[2-(Aminocarbonyl)-5-methoxybenzo[b]thien-3-yl]thio]acetic acid] was run?
Its inhibition at 33 µM is 7%.

How did the inhibition at 33 µM turn out when COc1ccc2sc(C(N)=O)c(SCCN3CCOCC3)c2c1 [Example 11, 5-Methoxy-3-[[2-(4-morpholinyl)ethyl]thio]benzo[b]thiophene-2-carboxamide] was run?
Its inhibition at 33 µM is 27%.

How did the inhibition at 33 µM turn out when COc1cccc2sc(C(N)=O)c(N(C)C)c12 [Example 20, 3-(Dimethylamino)-4-methoxybenzo[b]thiophene-2carboxamide] was run?
Its inhibition at 33 µM is 63%.

COC(=O)CCCCSc1c(C(N)=O)sc2ccc(OC)cc12 [Example 13] was tested. Which inhibition at 33 µM did it give?
Its inhibition at 33 µM is 21%.

Same assay, conditions: 100 μM, neutrophils labeled with calcein, read-out: Adhesion ECA, % inhibition

How did the inhibition at 100 µM turn out when COc1ccc2oc(C(=O)NCc3ccccc3)c(OC(C)C)c2c1 [Example 30, 5-Methoxy-3-(1-methylethoxy)-N-(phenylmethyl)-2-benzofurancarboxamide] was run?
Its inhibition at 100 µM is 42%.

With COc1ccc2oc(C(N)=O)c(OCc3ccccc3)c2c1 [Example 36, 5-Methoxy-3-(phenylmethoxy)-2-benzofurancarboxamide] as the molecule, how does the inhibition at 100 µM read?
The inhibition at 100 µM was 4%.

Which inhibition at 100 µM does the source give for CNc1c(C(N)=O)[s+]([O-])c2ccc(OC)cc12 (stereo not shown) [Example 22, 5-Methoxy-3-(methylamino)benzo[b]thiophene-2-carboxamide-1-oxide] here?
The inhibition at 100 µM was 16%.

For CC(C)Oc1c(C(N)=O)oc2ccccc12 [Example 29, 3-(1-Methylethoxy)-2-benzofurancarboxamide], which inhibition at 100 µM is on record?
The inhibition at 100 µM was 20%.

How did the inhibition at 100 µM turn out when CC(C)Oc1c(C(N)=O)oc2ccc(Cl)cc12 [Example 28, 5-Chloro-3-(1-methylethoxy)-2-benzofurancarboxamide] was run?
Its inhibition at 100 µM is 52%.

With CC(C)Oc1c(C(=O)NCc2ccccc2)oc2ccc(Cl)cc12 [Example 32, 5-Chloro-3-(1-methylethoxy)-N-(phenylmethyl)-2-benzofurancarboxamide] as the molecule, how does the inhibition at 100 µM read?
The inhibition at 100 µM was 95%.

How did the inhibition at 100 µM turn out when COc1ccc2c(c1)c(NC(C)C)c(C(N)=O)[s+]2[O-] (stereo not shown) [Example 23, 5-Methoxy-3-[(1-methylethyl)amino]benzo[b]thiophene-2-carboxamide-1-oxide] was run?
The inhibition at 100 µM was 7%.

CC(C)Oc1c(C(=O)Nc2ccccc2)oc2ccccc12 [Example 34, 3-(1-Methylethoxy)-N-phenyl-2-benzofurancarboxamide] was tested. Which inhibition at 100 µM did it give?
The inhibition at 100 µM was 70%.

For CC(C)NC(=O)c1oc2ccccc2c1OC(C)C [Example 33, 3-(1-Methylethoxy)-N-(1-methylethyl)-2-benzofurancarboxamide], which inhibition at 100 µM is on record?
The inhibition at 100 µM was 15%.

Same assay, conditions: footnote a, neutrophil label not given, IC50 by linear regression from 33.3, 10.0, 3.3 and 1.0 μM, read-out: Adhesion ECA, IC50

For COc1ccc2oc(C(N)=O)c(OC(C)C)c2c1 [Example 27, 5-Methoxy-3-(1-methylethoxy)-2-benzofurancarboxamide], which IC50 is on record?
The IC50 was 13 µM.
